Test results reported in patent publication US10100058B2, “Fused heterocyclic compounds as CaM kinase inhibitors” (Gilead Sciences, Inc., priority 2016, dated 2018).

Target: recombinant CaMKIIδ (Homo sapiens (Human), UniProt Q13557)
Assay: CaMKIIδ biochemical assay (HTRF)
Conditions: 10 pM CaMKIIδ, 110 nM calmodulin, 12 μM ATP, 1 hour; read-out: CAMKIID-HTRF-384V2 (IC50 - nM)
Description: CaMKIIδ Biochemical Assay
The biochemical activity of recombinant CaMKIIδ was measured by monitoring the phosphorylation of a target peptide using Homogenous Time Resolved Fluorescence (HTRF) technology from CisBio Bioassays.

Row | IC50 [nM] | Compound
1 | 4.79 | CCCNC(CNC(=O)c1ccnc(-c2cnn3ccc(-c4ccccc4)nc23)c1)C(C)C (stereo not shown) [Example 53, N-(3-methyl-2-(propylamino)butyl)-2-(5-phenylpyrazolo[1,5-a]pyrimidin-3-yl)isonicotinamide]
2 | 13.4 | CCNC(CC)CNC(=O)c1ccnc(-c2cnn3ccc(-c4ccccc4)nc23)c1 (stereo not shown) [Example 54, N-(2-(ethylamino)butyl)-2-(5-phenylpyrazolo[1,5-a]pyrimidin-3-yl)isonicotinamide]
3 | 12 | CCNC(CNC(=O)c1ccnc(-c2cnn3ccc(-c4ccccc4)nc23)c1)C(C)C (stereo not shown) [Example 55, N-(2-(ethylamino)-3-methylbutyl)-2-(5-phenylpyrazolo[1,5-a]pyrimidin-3-yl)isonicotinamide]
4 | 26.5 | N[C@@H](CO)CNC(=O)c1ccnc(-c2cnn3ccc(-c4ccccc4)nc23)c1 [Example 57, (R)—N-(2-amino-3-hydroxypropyl)-2-(5-phenylpyrazolo[1,5-a]pyrimidin-3-yl)isonicotinamide]
5 | 5.34 | CCN[C@@H](CO)CNC(=O)c1ccnc(-c2cnn3ccc(-c4ccccc4)nc23)c1 [Example 59, (R)—N-(2-(ethylamino)-3-hydroxypropyl)-2-(5-phenylpyrazolo[1,5-a]pyrimidin-3-yl)isonicotinamide]
6 | 2.35 | CCCC(CNC(=O)c1ccnc(-c2cnn3ccc(-c4ccccc4)nc23)c1)N(CC)CC (stereo not shown) [Example 60, N-(2-(diethylamino)pentyl)-2-(5-phenylpyrazolo[1,5-a]pyrimidin-3-yl)isonicotinamide]
7 | 3.6 | CCN(CC)C(CNC(=O)c1ccnc(-c2cnn3ccc(-c4ccccc4)nc23)c1)C(C)C (stereo not shown) [Example 61, N-(2-(diethylamino)-3-methylbutyl)-2-(5-phenylpyrazolo[1,5-a]pyrimidin-3-yl)isonicotinamide]
8 | 216 | CC(CN)NC(=O)c1ccnc(-c2cnn3ccc(-c4ccccc4)nc23)c1 (stereo not shown) [Example 62, N-(1-aminopropan-2-yl)-2-(5-phenylpyrazolo[1,5-a]pyrimidin-3-yl)isonicotinamide]
9 | 12.6 | CCN(CCN)C(=O)c1ccnc(-c2cnn3ccc(-c4ccccc4)nc23)c1 [Example 65, N-(2-aminoethyl)-N-ethyl-2-(5-phenylpyrazolo[1,5-a]pyrimidin-3-yl)isonicotinamide]
10 | 205 | N[C@H](CNC(=O)c1ccnc(-c2cnn3ccc(-c4ccccc4)nc23)c1)COc1ncccn1 [Example 66, (R)—N-(2-amino-3-(pyrimidin-2-yloxy)propyl)-2-(5-phenylpyrazolo[1,5-a]pyrimidin-3-yl)isonicotinamide]
11 | 102 | CCNC(C)(C)CNC(=O)c1ccnc(-c2cnn3ccc(-c4ccccc4)nc23)c1 [Example 67, N-(2-(ethylamino)-2-methylpropyl)-2-(5-phenylpyrazolo[1,5-a]pyrimidin-3-yl)isonicotinamide]
12 | 26.3 | O=C(c1ccnc(-c2cnn3ccc(-c4ccccc4)nc23)c1)N1CCCCC12CCCNC2 (stereo not shown) [Example 68, (2-(5-phenylpyrazolo[1,5-a]pyrimidin-3-yl)pyridin-4-yl)(1,8-diazaspiro[5.5]undecan-1-yl)methanone]
13 | 91.1 | CCN[C@H](CNC(=O)c1ccnc(-c2cnn3ccc(-c4ccccc4)nc23)c1)COc1ncccn1 [Example 69, (R)—N-(2-(ethylamino)-3-(pyrimidin-2-yloxy)propyl)-2-(5-phenylpyrazolo[1,5-a]pyrimidin-3-yl)isonicotinamide]
14 | 30.1 | CCN(CC)[C@H](CNC(=O)c1ccnc(-c2cnn3ccc(-c4ccccc4)nc23)c1)COc1ncccn1 [Example 70, (R)—N-(2-(diethylamino)-3-(pyrimidin-2-yloxy)propyl)-2-(5-phenylpyrazolo[1,5-a]pyrimidin-3-yl)isonicotinamide]
15 | 31.9 | CC(C)NC(CNC(=O)c1ccnc(-c2cnn3ccc(-c4ccccc4)nc23)c1)C(C)C (stereo not shown) [Example 73, N-(2-(isopropylamino)-3-methylbutyl)-2-(5-phenylpyrazolo[1,5-a]pyrimidin-3-yl)isonicotinamide]
16 | 34.2 | CCN[C@H](C)CNC(=O)c1ccnc(-c2cnn3ccc(-c4ccccc4)nc23)c1 [Example 74, (R)—N-(2-(ethylamino)propyl)-2-(5-phenylpyrazolo[1,5-a]pyrimidin-3-yl)isonicotinamide]

Row | IC50 [nM] | Compound
17 | 39.3 | CC[C@@]1(CNC(=O)c2ccnc(-c3cnn4ccc(-c5ccccc5)nc34)c2)CCCN1 [Example 75, (S)—N-((2-ethylpyrrolidin-2-yl)methyl)-2-(5-phenylpyrazolo[1,5-a]pyrimidin-3-yl)isonicotinamide]
18 | 2.85 | NC[C@H]1CCCN1C(=O)c1ccnc(-c2cnn3ccc(-c4cccs4)nc23)c1 [Example 79, (R)-(2-(aminomethyl)pyrrolidin-1-yl)(2-(5-(thiophen-2-yl)pyrazolo[1,5-a]pyrimidin-3-yl)pyridin-4-yl)methanone]
19 | 18.8 | N[C@H]1CCCN(C(=O)c2ccnc(-c3cnn4ccc(-c5cccs5)nc34)c2)C1 [Example 83, (S)-(3-aminopiperidin-1-yl)(2-(5-(thiophen-2-yl)pyrazolo[1,5-a]pyrimidin-3-yl)pyridin-4-yl)methanone]
20 | 17.5 | C[C@@H]1CNCCN1C(=O)c1ccnc(-c2cnn3ccc(-c4cccs4)nc23)c1 [Example 84, (R)-(2-methylpiperazin-1-yl)(2-(5-(thiophen-2-yl)pyrazolo[1,5-a]pyrimidin-3-yl)pyridin-4-yl)methanone]
21 | 4.8 | N[C@H]1CCN(C(=O)c2ccnc(-c3cnn4ccc(-c5cccs5)nc34)c2)C1 [Example 85, (S)-(3-aminopyrrolidin-1-yl)(2-(5-(thiophen-2-yl)pyrazolo[1,5-a]pyrimidin-3-yl)pyridin-4-yl)methanone]
22 | 0.99 | N[C@@H]1CCC[C@@H]2CCCN(C(=O)c3ccnc(-c4cnn5ccc(-c6cccs6)nc45)c3)[C@@H]21 [Example 86, ((4aR,8R,8aS)-8-aminooctahydroquinolin-1(2H)-yl)(2-(5-(thiophen-2-yl)pyrazolo[1,5-a]pyrimidin-3-yl)pyridin-4-yl)methanone]
23 | 45.2 | N[C@H]1CCN(C(=O)c2ccnc(-c3cnn4ccc(-c5ccccc5)nc34)c2)C1 [Example 87, (S)-(3-aminopyrrolidin-1-yl)(2-(5-phenylpyrazolo[1,5-a]pyrimidin-3-yl)pyridin-4-yl)methanone]
24 | 13.6 | O=C(c1ccnc(-c2cnn3ccc(-c4ccccc4)nc23)c1)N1CCCCC12CCNC2 (stereo not shown) [Example 89, (2-(5-phenylpyrazolo[1,5-a]pyrimidin-3-yl)pyridin-4-yl)(2,6-diazaspiro[4.5]decan-6-yl)methanone]
25 | 58.5 | C[C@H](N)[C@@H]1CCCCN1C(=O)c1ccnc(-c2cnn3ccc(-c4ccccc4)nc23)c1 [Example 90, ((S)-2-((S)-1-aminoethyl)piperidin-1-yl)(2-(5-phenylpyrazolo[1,5-a]pyrimidin-3-yl)pyridin-4-yl)methanone]
26 | 32.1 | O=C(c1ccnc(-c2cnn3ccc(-c4ccccc4)nc23)c1)N1CCC2CNCC21 (stereo not shown) [Example 92, (hexahydropyrrolo[3,4-b]pyrrol-1(2H)-yl)(2-(5-phenylpyrazolo[1,5-a]pyrimidin-3-yl)pyridin-4-yl)methanone]
27 | 27.8 | O=C(c1ccnc(-c2cnn3ccc(-c4ccccc4)nc23)c1)N1CCCC[C@@H]1[C@@H]1CCCN1 [Example 93, (2-(5-phenylpyrazolo[1,5-a]pyrimidin-3-yl)pyridin-4-yl)((R)-2-((S)-pyrrolidin-2-yl)piperidin-1-yl)methanone]
28 | 7 | N[C@H]1CC[C@H]2CCCN(C(=O)c3ccnc(-c4cnn5ccc(-c6ccccc6)nc45)c3)[C@H]21 [Example 94, ((4aR,7S,7aR)-7-aminooctahydro-1H-cyclopenta[b]pyridin-1-yl)(2-(5-phenylpyrazolo[1,5-a]pyrimidin-3-yl)pyridin-4-yl)methanone]
29 | 390 | O=C(c1ccnc(-c2cnn3ccc(-c4ccccc4)nc23)c1)N1CCC2CCNCC21 (stereo not shown) [Example 95, (octahydro-1H-pyrrolo[2,3-c]pyridin-1-yl)(2-(5-phenylpyrazolo[1,5-a]pyrimidin-3-yl)pyridin-4-yl)methanone]
30 | 12.7 | N[C@@H]1CC[C@H]2CCCN(C(=O)c3ccnc(-c4cnn5ccc(-c6ccccc6)nc45)c3)[C@H]21 [Example 96, ((4aR,7R,7aR)-7-aminooctahydro-1H-cyclopenta[b]pyridin-1-yl)(2-(5-phenylpyrazolo[1,5-a]pyrimidin-3-yl)pyridin-4-yl)methanone]
31 | 216 | O=C(c1ccnc(-c2cnn3ccc(-c4ccccc4)nc23)c1)N1CCCC12CCCNC2 (stereo not shown) [Example 97, (2-(5-phenylpyrazolo[1,5-a]pyrimidin-3-yl)pyridin-4-yl)(1,7-diazaspiro[4.5]decan-1-yl)methanone]

Row | Compound | IC50 [nM]
32 | O=C(c1ccnc(-c2cnn3ccc(-c4cccs4)nc23)c1)N1CC2CCC(C1)NC2 (stereo not shown) [Example 76] | 3.47
33 | O=C(c1ccnc(-c2cnn3ccc(-c4cccs4)nc23)c1)N1CC2CCC[C@@H](C1)NC2 [Example 77, ((1S)-3,9-diazabicyclo[3.3.2]decan-3-yl)(2-(5-(thiophen-2-yl)pyrazolo[1,5-a]pyrimidin-3-yl)pyridin-4-yl)methanone] | 2.7
34 | O=C(c1ccnc(-c2cnn3ccc(-c4cccs4)nc23)c1)N1CC2CNC(COC2)C1 (stereo not shown) [Example 81] | 7.33
35 | O=C(c1ccnc(-c2cnn3ccc(-c4cccs4)nc23)c1)N1C2CCNCC1CC2 (stereo not shown) [Example 82] | 6.14
36 | N[C@H]1C[C@@H]2CCC[C@H]1N2C(=O)c1ccnc(-c2cnn3ccc(-c4ccccc4)nc23)c1 [Example 88, ((1S,5R,6S)-6-amino-8-azabicyclo[3.2.1]octan-8-yl)(2-(5-phenylpyrazolo[1,5-a]pyrimidin-3-yl)pyridin-4-yl)methanone] | 50.3
37 | O=C(c1ccnc(-c2cnn3ccc(-c4ccccc4)nc23)c1)N1C2CCCC1CNCC2 (stereo not shown) [Example 91] | 32.8
